In ChEMBL document CHEMBL4400520, “Benzofuran-isatin-imine hybrids tethered via different length alkyl linkers: Design, synthesis and in vitro evaluation of anti-tubercular and anti-bacterial activities as well as cytotoxicity” (Eur J Med Chem, 2019):
≈ marks a conversion by molar mass, not a printed value.

Experiments:
[1] = tested on: Proteus mirabilis; test: Antibacterial activity against Proteus mirabilis; assay type: functional
[2] = tested on: Klebsiella pneumoniae; test: Antibacterial activity against Klebsiella pneumoniae; assay type: functional
[3] = tested on: Acinetobacter calcoaceticus; test: Antibacterial activity against Acinetobacter calcoaceticus; assay type: functional
[4] = Selectivity index, ratio of CC50 for African green monkey Vero cells to MIC for Mycobacterium tuberculosis H37Rv; assay type: toxicity; conditions: read-out: Selectivity Index
[5] = tested on: Enterococcus faecalis; test: Antibacterial activity against Enterococcus faecalis; assay type: functional
[6] = tested on: Enterobacter cloacae; test: Antibacterial activity against Enterobacter cloacae; assay type: functional
[7] = tested on: Mycobacterium tuberculosis; test: Antitubercular activity against Mycobacterium tuberculosis H37Rv; assay type: functional
[8] = tested on: Escherichia coli; test: Antibacterial activity against Escherichia coli; assay type: functional
[9] = tested on: Citrobacter freundii; test: Antibacterial activity against Citrobacter freundii; assay type: functional
[10] = tested on: Staphylococcus epidermidis; test: Antibacterial activity against methicillin-sensitive Staphylococcus epidermidis; assay type: functional
[11] = tested on: Pseudomonas aeruginosa; test: Antibacterial activity against Pseudomonas aeruginosa ATCC 27853; assay type: functional
[12] = tested on: Staphylococcus aureus; test: Antibacterial activity against methicillin-sensitive Staphylococcus aureus; assay type: functional
[13] = tested on: Staphylococcus aureus; test: Antibacterial activity against methicillin-resistant Staphylococcus aureus; assay type: functional
[14] = Cytotoxicity against African green monkey Vero cells assessed as reduction in cell viability after 72 hrs by MTT assay; assay type: cell-based; conditions: chlorocebus sabaeus, Vero cells
[15] = tested on: Klebsiella aerogenes; test: Antibacterial activity against Enterobacter aerogenes; assay type: functional
[16] = tested on: Staphylococcus epidermidis; test: Antibacterial activity against methicillin-resistant Staphylococcus epidermidis; assay type: functional
[17] = tested on: Enterococcus faecium; test: Antibacterial activity against Enterococcus faecium; assay type: functional

Row | Structure (SMILES) | MIC90 [1] [µg/mL] | MIC90 [2] [µg/mL] | MIC90 [3] [µg/mL] | selectivity ratio [4] | MIC90 [5] [µg/mL] | MIC90 [6] [µg/mL] | MIC [7] [µg/mL] | MIC90 [8] [µg/mL] | MIC90 [9] [µg/mL] | MIC90 [10] [µg/mL] | MIC90 [11] [µg/mL] | MIC90 [12] [µg/mL] | MIC90 [13] [µg/mL] | CC50 at 72 h [14] [µg/mL] | MIC90 [15] [µg/mL] | MIC90 [16] [µg/mL] | MIC90 [17] [µg/mL]
1 | CCO/N=C1\C(=O)N(CCCCCCOc2ccc3oc(-c4ccc(OC)cc4)c(C(=O)OCC)c3c2)c2ccccc21 | 0.25 (≈ 0.428 µM) | 1 (≈ 1.71 µM) | 2 (≈ 3.42 µM) | > 1000 | 2 (≈ 3.42 µM) | 0.5 (≈ 0.855 µM) | < 0.016 | 0.5 (≈ 0.855 µM) | 1 (≈ 1.71 µM) | 1 (≈ 1.71 µM) | 1 (≈ 1.71 µM) | 1 (≈ 1.71 µM) | 1 (≈ 1.71 µM) | 16 (≈ 27.4 µM) | 0.25 (≈ 0.428 µM) | 8 (≈ 13.7 µM) | 32 (≈ 54.7 µM)
2 | CCOC(=O)c1c(-c2ccc(OC)cc2)oc2ccc(OCCCCCN3C(=O)C(=O)c4cc(F)ccc43)cc12 | 0.25 (≈ 0.458 µM) | 2 (≈ 3.67 µM) | 8 (≈ 14.7 µM) | 8000 | 4 (≈ 7.33 µM) | 1 (≈ 1.83 µM) | 0.064 (≈ 0.117 µM) | 0.25 (≈ 0.458 µM) | 1 (≈ 1.83 µM) | 1 (≈ 1.83 µM) | 8 (≈ 14.7 µM) | 2 (≈ 3.67 µM) | 2 (≈ 3.67 µM) | 512 (≈ 938 µM) | 1 (≈ 1.83 µM) | 8 (≈ 14.7 µM) | 64 (≈ 117 µM)
3 | CCO/N=C1\C(=O)N(CCCCCOc2ccc3oc(-c4ccc(OC)cc4)c(C(=O)OCC)c3c2)c2ccc(OC)cc21 | 0.06 (≈ 0.0999 µM) | 2 (≈ 3.33 µM) | 2 (≈ 3.33 µM) | 102 | 1 (≈ 1.66 µM) | 0.06 (≈ 0.0999 µM) | 0.156 (≈ 0.26 µM) | 0.125 (≈ 0.208 µM) | 0.125 (≈ 0.208 µM) | 1 (≈ 1.66 µM) | 2 (≈ 3.33 µM) | 1 (≈ 1.66 µM) | 1 (≈ 1.66 µM) | 16 (≈ 26.6 µM) | 0.125 (≈ 0.208 µM) | 4 (≈ 6.66 µM) | 16 (≈ 26.6 µM)
4 | NNC(=O)c1ccncc1 [ISONIAZID] |  |  |  | 3280 |  |  | 0.078 (≈ 0.569 µM) |  |  |  |  |  |  | 256 (≈ 1870 µM) |  |  | 
5 | CCOC(=O)c1c(-c2ccc(OC)cc2)oc2ccc(OCCCCCCN3C(=O)/C(=N\NC(N)=S)c4ccccc43)cc12 | 1 (≈ 1.63 µM) | 8 (≈ 13 µM) | 4 (≈ 6.51 µM) | > 500 | 1 (≈ 1.63 µM) | 1 (≈ 1.63 µM) | < 0.016 | 1 (≈ 1.63 µM) | 2 (≈ 3.25 µM) | 1 (≈ 1.63 µM) | 4 (≈ 6.51 µM) | 1 (≈ 1.63 µM) | 0.5 (≈ 0.813 µM) | 8 (≈ 13 µM) | 2 (≈ 3.25 µM) | 4 (≈ 6.51 µM) | 64 (≈ 104 µM)
6 | CO[C@H]1/C=C/O[C@@]2(C)Oc3c(C)c(O)c4c(O)c(c(/C=N/N5CCN(C)CC5)c(O)c4c3C2=O)NC(=O)/C(C)=C\C=C\[C@H](C)[C@H](O)[C@@H](C)[C@@H](O)[C@@H](C)[C@H](OC(C)=O)[C@@H]1C [RIFAMPIN] |  |  |  | 6560 |  |  | 0.078 (≈ 0.0948 µM) |  |  |  |  |  |  |  |  |  | 
7 | CCOC(=O)c1c(-c2ccc(OC)cc2)oc2ccc(OCCCCCCN3C(=O)/C(=N\OC)c4ccccc43)cc12 | 0.125 (≈ 0.219 µM) | 4 (≈ 7.01 µM) | 4 (≈ 7.01 µM) | > 2000 | 4 (≈ 7.01 µM) | 0.125 (≈ 0.219 µM) | < 0.016 | 0.125 (≈ 0.219 µM) | 0.125 (≈ 0.219 µM) | 0.5 (≈ 0.876 µM) | 2 (≈ 3.5 µM) | 2 (≈ 3.5 µM) | 2 (≈ 3.5 µM) | 32 (≈ 56.1 µM) | 0.25 (≈ 0.438 µM) | 8 (≈ 14 µM) | 16 (≈ 28 µM)
8 | CCOC(=O)c1c(-c2ccc(OC)cc2)oc2ccc(OCCCCCCN3C(=O)C(=O)c4ccccc43)cc12 | 0.125 (≈ 0.231 µM) | 0.5 (≈ 0.923 µM) | 2 (≈ 3.69 µM) | 4130 | 2 (≈ 3.69 µM) | 0.125 (≈ 0.231 µM) | 0.062 (≈ 0.114 µM) | 0.06 (≈ 0.111 µM) | 0.25 (≈ 0.462 µM) | 0.25 (≈ 0.462 µM) | 4 (≈ 7.39 µM) | 1 (≈ 1.85 µM) | 1 (≈ 1.85 µM) | 256 (≈ 473 µM) | 0.5 (≈ 0.923 µM) | 4 (≈ 7.39 µM) | 8 (≈ 14.8 µM)
9 | CCOC(=O)c1c(-c2ccc(OC)cc2)oc2ccc(OCCCCCN3C(=O)/C(=N\OC)c4ccccc43)cc12 | 0.5 (≈ 0.898 µM) | 2 (≈ 3.59 µM) | 1 (≈ 1.8 µM) | 1030 | 4 (≈ 7.19 µM) | 0.25 (≈ 0.449 µM) | 0.049 (≈ 0.088 µM) | 0.25 (≈ 0.449 µM) | 1 (≈ 1.8 µM) | 0.5 (≈ 0.898 µM) | 1 (≈ 1.8 µM) | 2 (≈ 3.59 µM) | 4 (≈ 7.19 µM) | 32 (≈ 57.5 µM) | 1 (≈ 1.8 µM) | 4 (≈ 7.19 µM) | 32 (≈ 57.5 µM)
